The test system of one experiment is A673 cells. Put plainly: Inhibition of proliferation of A673 cells (CyQUANT, 72 hour). Type of experiment: cell-based, human. The settings on record: 72 hour proliferation. The method in brief: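 Human Ewing's sarcoma A673 cells in DMEM + 10% FBS + 1 mM sodium pyruvate, 37 °C, 5% CO2, exposed to compounds from 4 μM to 126.4 pM (0.5 log dilutions) for 72 h. Proliferation read by CyQUANT; IC50 reported as binned categories.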

Experiment [1] addresses CDK7/Cyclin H/MAT1 trimeric complex (Homo sapiens, UniProt P50613). Put plainly: CDK7 kinase assay, Caliper/LabChip EZ Reader (Biortus Biosciences). It counts as biochemical. The settings on record: CDK7/Cyclin H/MAT1 10 nM, ATP 2 mM, FAM-CDK7tide 2 μM, 30 min incubation, read-out: CDK7 Inhibition (IC50). As for the experimental part:
Compounds of the invention were further assayed for CDK7 activity at Biortus Biosciences (Jiangyin, Jiangsu Province, P.R. of China) using a CDK7 kinase assay developed with a Caliper/LabChip EZ Reader (Perkin Elmer, Waltham, Mass.). […] The incubation period was chosen such that the total fraction of phosphorylated peptide product produced was <20% for the uninhibited kinase.

In a further experiment the test system is Jurkat cells. In words: Inhibition of proliferation of Jurkat cells (CellTiter-Glo, 72 hour). Type of experiment: cell-based, human. The following applies: 10 μM to 316 pM. The method in brief:
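Human T-cell leukemia Jurkat cells in RPMI 1640 with 10% FBS were exposed 72 h at 37 °C, 5% CO2 to compounds from 10 μM to 316 pM in 0.5-log steps. Anti-proliferative effect measured by CellTiter-Glo; IC50 reported in binned categories.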
(Cellular ATP, detected with luciferase, serves as a proxy for viable cell number.)

A further experiment addresses T1, CDK7 (Homo sapiens, UniProt P50613).
T1 construct: purchased Life Technologies (Adapta kinase assay service)
Put plainly: CDK7 kinase activity, Adapta kinase assay (Life Technologies). Type of experiment: biochemical. The following applies: Adapta kinase assay at Life Technologies; 10 μM down to 0.514 nM, 3-fold serial dilutions; read-out: CDK7 Inhibition (IC50). The method in brief:
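Adapta kinase activity assay run as a commercial service; substrates not specified here. Compounds tested in 3-fold serial dilutions from 10 μM down to 0.514 nM.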

Sequence of CDK7/Cyclin H/MAT1 trimeric complex (P50613 whole entry): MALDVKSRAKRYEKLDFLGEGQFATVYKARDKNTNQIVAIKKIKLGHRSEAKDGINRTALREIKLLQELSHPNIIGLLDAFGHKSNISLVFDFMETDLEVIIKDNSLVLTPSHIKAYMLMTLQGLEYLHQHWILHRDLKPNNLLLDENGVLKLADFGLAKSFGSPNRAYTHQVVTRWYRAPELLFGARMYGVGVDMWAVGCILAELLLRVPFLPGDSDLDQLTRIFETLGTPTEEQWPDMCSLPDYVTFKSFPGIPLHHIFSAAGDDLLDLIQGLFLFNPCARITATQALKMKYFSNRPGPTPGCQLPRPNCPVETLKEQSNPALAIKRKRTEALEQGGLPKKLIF
Sequence of CDK7/Cyclin H/MAT1 trimeric complex (P51946 whole entry partner): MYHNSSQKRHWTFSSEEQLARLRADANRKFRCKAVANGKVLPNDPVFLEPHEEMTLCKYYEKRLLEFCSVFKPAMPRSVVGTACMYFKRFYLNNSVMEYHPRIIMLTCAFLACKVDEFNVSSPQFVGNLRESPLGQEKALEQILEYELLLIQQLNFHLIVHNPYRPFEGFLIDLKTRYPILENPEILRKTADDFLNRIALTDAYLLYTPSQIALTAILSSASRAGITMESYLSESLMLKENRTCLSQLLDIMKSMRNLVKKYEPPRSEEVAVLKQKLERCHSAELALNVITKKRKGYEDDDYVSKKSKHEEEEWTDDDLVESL
Sequence of CDK7/Cyclin H/MAT1 trimeric complex (P51948 whole entry partner): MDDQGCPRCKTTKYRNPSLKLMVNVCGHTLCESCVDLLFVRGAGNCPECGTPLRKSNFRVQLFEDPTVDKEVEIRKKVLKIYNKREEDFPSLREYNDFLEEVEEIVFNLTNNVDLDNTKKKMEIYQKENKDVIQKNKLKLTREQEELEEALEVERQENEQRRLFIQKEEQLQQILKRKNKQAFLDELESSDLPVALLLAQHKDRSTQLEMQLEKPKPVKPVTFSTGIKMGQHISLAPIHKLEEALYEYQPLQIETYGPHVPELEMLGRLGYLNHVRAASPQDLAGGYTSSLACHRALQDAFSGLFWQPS
T1 sequence (P50613 whole entry): as the sequence (P50613 whole entry) above
T1 sequence (P51946 whole entry partner): as the sequence (P51946 whole entry partner) above
T1 sequence (P51948 whole entry partner): as the sequence (P51948 whole entry partner) above

For `C=CC(=O)N1CCC2(CC1)CN([C@H]1CCC[C@@H](Nc3ncc(Cl)c(-c4c[nH]c5ccccc45)n3)C1)C(=O)O2` [Compound 186], the IC50 (usually the concentration at which inhibition is half-maximal) with A673 cells was below 0.5 µM; in experiment [1], below 0.1 µM; in the experiment with Jurkat cells, 0.5 to 5 µM; on CDK7, below 0.1 µM.
On to `C=CC(=O)N1CCC(NC[C@@H]2CCC[C@H](Nc3ncc(Cl)c(-c4c[nH]c5ccccc45)n3)C2)CC1` [Compound 212, 1-[4-[[(1R,3S)-3-[[5-chloro-4-(1H-indol-3-yl)pyrimidin-2-yl]amino]cyclohexyl]methylamino]-1-piperidyl]prop-2-en-1-One], for which the IC50 was below 0.5 µM in the experiment with A673 cells (Homo sapiens), below 0.1 µM in experiment [1], above 5 µM with Jurkat cells (Homo sapiens) and below 0.1 µM on CDK7.
Turning to `CN(C)C/C=C/C(=O)N1CCC(C(=O)N2CC[C@@H](Nc3ncc(Cl)c(-c4c[nH]c5ccccc45)n3)C2)CC1` [Compound 213, (E)-1-[4-[(3R)-3-[[5-chloro-4-(1H-indol-3-yl)pyrimidin-2-yl]amino]pyrrolidine-1-carbonyl]-1-piperidyl]-4-(dimethylamino)but-2-en-1-One], the IC50 in the experiment with A673 cells (Homo sapiens) was below 0.5 µM; in experiment [1], below 0.1 µM; in the experiment on Jurkat cells (Homo sapiens) it was above 5 µM; on CDK7, below 0.1 µM.
On to `CN(C)C/C=C/C(=O)N1CCC(O)(CN(C)[C@H]2CCC[C@@H](Nc3ncc(Cl)c(-c4c[nH]c5ccccc45)n3)C2)CC1` [Compound 228], for which the IC50 was below 0.5 µM in the experiment with A673 cells, below 0.1 µM in experiment [1], 0.5 to 5 µM with Jurkat cells and below 0.1 µM at CDK7.
In the case of `C=CC(=O)N1CCN(C2CCCC(Nc3ncc(Cl)c(-c4c[nH]c5ccccc45)n3)C2)CC1C` (centres unmarked) [Compound 229], the IC50 in the experiment with A673 cells is below 0.5 µM; in experiment [1], below 0.1 µM; in the experiment on Jurkat cells, 0.5 to 5 µM; on CDK7, below 0.1 µM.
Turning to `CC1CN(C2CCCC(Nc3ncc(Cl)c(-c4c[nH]c5ccccc45)n3)C2)CCN1C(=O)C=CCN(C)C` (centres unmarked) [Compound 230], the half-inhibitory concentration (IC50) in the experiment with A673 cells is below 0.5 µM; in experiment [1], below 0.1 µM; in the experiment with Jurkat cells it was 0.5 to 5 µM; on CDK7, below 0.1 µM.
On to `C=CC(=O)N1CCN(C2CCCC(Nc3ncc(Cl)c(-c4c[nH]c5ccccc45)n3)C2)CC1C` (centres unmarked) [Compound 232], for which the IC50 was below 0.5 µM in the experiment with A673 cells, below 0.1 µM in experiment [1], below 0.5 µM with Jurkat cells and below 0.1 µM on CDK7.
Take `CN(C)CC=CC(=O)N1CCN(C2CCCC(Nc3ncc(Cl)c(-c4c[nH]c5ccccc45)n3)C2)CC1` (centres unmarked) [Compound 237]: the IC50 is below 0.5 µM with A673 cells, below 0.1 µM in experiment [1], below 0.5 µM with Jurkat cells and below 0.1 µM on CDK7.

The values above are taken from US10106526B2, “Inhibitors of cyclin-dependent kinase 7 (CDK7)” (SYROS PHARMACEUTICALS, INC., priority 2014, dated 2018).
